Experimental data published in patent publication US20240383915A1, “OXAZEPINE COMPOUNDS AND USES THEREOF IN THE TREATMENT OF CANCER” (Genentech, Inc., priority 2021, published 2024).

What was measured:
KRas(G12V) = KRas(G12V) (Homo sapiens (Human), UniProt P01116, G12V); test: KRas(G12V) GDP HTRF (BODIPY-GDP exchange TR-FRET); type: biochemical
KRas = KRas (Homo sapiens (Human), UniProt P01116); test: KRas GDP HTRF (BODIPY-GDP exchange TR-FRET); type: biochemical
In short: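 Inhibition of SOS1-mediated exchange of BODIPY-GDP on KRAS G12D, started with 3 nM recombinant human SOS1 and 300 nM BODIPY-GDP and read after 60 min. TR-FRET excitation 337 nm, ratio 520/490 nm ×10,000. IC50 from 4-parameter Hill fit of normalized data.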

SW480 cells = test: SW480 proliferation assay; type: cell-based; conditions: Homo sapiens, SW480, SW480; read-out: SW480 Prolif IC50 (G12V)
PC-9 cells = test: PC9 proliferation assay; type: cell-based, human; conditions: Homo sapiens, PC-9, PC9; read-out: PC9 Prolif IC50 (G12V)

Chain of KRas(G12V) (P01116-2 other isoform, or with tags, fused parts or gaps G12V): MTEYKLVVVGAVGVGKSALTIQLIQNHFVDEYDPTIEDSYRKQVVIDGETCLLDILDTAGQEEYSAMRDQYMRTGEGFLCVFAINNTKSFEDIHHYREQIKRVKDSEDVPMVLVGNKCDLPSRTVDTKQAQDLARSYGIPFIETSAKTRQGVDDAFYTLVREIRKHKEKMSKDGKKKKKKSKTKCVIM
Chain of KRas (P01116-2 other isoform, or with tags, fused parts or gaps): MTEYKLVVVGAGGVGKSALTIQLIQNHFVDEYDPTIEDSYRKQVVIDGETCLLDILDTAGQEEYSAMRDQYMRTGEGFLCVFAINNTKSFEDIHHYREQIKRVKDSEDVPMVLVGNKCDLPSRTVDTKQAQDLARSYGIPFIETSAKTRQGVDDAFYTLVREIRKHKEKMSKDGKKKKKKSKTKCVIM

| IC50 (KRas(G12V)) | IC50 (KRas) | IC50 (SW480 cells) | IC50 (PC-9 cells) | SMILES |
| --- | --- | --- | --- | --- |
| 0.15 nM | 0.44 nM | 4.9 nM | 3700 nM | Cc1cc(N)nc(-c2c(Cl)c3c4c(nc(OC[C@@]56CCCN5C[C@H](F)C6)nc4c2F)N([C@@H](c2cccnc2N)C2CC2)CCO3)c1C(F)(F)F (atropisomer, axis not shown; (aS)) [Example 86, 6-((R)-4-((R)-(2-aminopyridin-3-yl)(cyclopropyl)methyl)-8-chloro-10-fluoro-2-(((2R,7aS)-2-fluorotetrahydro-1H-pyrrolizin-7a(5H)-yl)methoxy)-5,6-dihydro-4H-[1,4]oxazepino[5,6,7-de]quinazolin-9-yl)-4-methyl-5-(trifluoromethyl)pyridin-2-amine] |
| 0.087 nM | 0.106 nM | 2.5 nM | 6300 nM | Cc1cc(N)nc(-c2c(Cl)c3c4c(nc(OC[C@@H]5CC[C@H]6COCCN65)nc4c2F)N([C@H](C)c2cccnc2N)CCO3)c1C(F)(F)F (atropisomer, axis not shown; (aS)) [Example 87a, 6-((R)-4-((R)-1-(2-aminopyridin-3-yl)ethyl)-8-chloro-10-fluoro-2-(((6S,8aS)-hexahydro-1H-pyrrolo[2,1-c][1,4]oxazin-6-yl)methoxy)-5,6-dihydro-4H-[1,4]oxazepino[5,6,7-de]quinazolin-9-yl)-4-methyl-5-(trifluoromethyl)pyridin-2-amine] |
| 0.05 nM | 0.12 nM | 1.5 nM | 3000 nM | Cc1cc(N)nc(-c2c(Br)c3c4c(nc(OC[C@@]56CCCN5C[C@H](F)C6)nc4c2F)N([C@H](C)c2cccnc2N)CCO3)c1C(F)(F)F (atropisomer, axis not shown; (aS)) [Example 88, (R)-6-(4-((R)-1-(2-aminopyridin-3-yl)ethyl)-8-bromo-10-fluoro-2-(((2R,7aS)-2-fluorotetrahydro-1H-pyrrolizin-7a(5H)-yl)methoxy)-5,6-dihydro-4H-[1,4]oxazepino[5,6,7-de]quinazolin-9-yl)-4-methyl-5-(trifluoromethyl)pyridin-2-amine] |
| 0.075 nM | 0.17 nM | 7.2 nM | 2400 nM | CCO[C@H]1CN2CCC[C@@]2(COc2nc3c4c(c(Cl)c(-c5nc(N)cc(C)c5C(F)(F)F)c(F)c4n2)OCCN3[C@H](C)c2cccnc2N)C1 (atropisomer, axis not shown; (aS)) [Example 89, 6-((R)-4-((R)-1-(2-aminopyridin-3-yl)ethyl)-8-chloro-2-(((2R,7aS)-2-ethoxytetrahydro-1H-pyrrolizin-7a(5H)-yl)methoxy)-10-fluoro-5,6-dihydro-4H-[1,4]oxazepino[5,6,7-de]quinazolin-9-yl)-4-methyl-5-(trifluoromethyl)pyridin-2-amine] |
| 0.29 nM | 0.9 nM | 3.4 nM | 20000 nM | Cc1cc(N)nc(-c2c(Cl)c3c4c(nc(OC[C@@H]5CC[C@H]6COC(F)(F)CN56)nc4c2F)N([C@H](C)c2cccnc2N)CCO3)c1C(F)(F)F (atropisomer, axis not shown; (aS)) [Example 91a, 6-((R)-4-((R)-1-(2-aminopyridin-3-yl)ethyl)-8-chloro-2-(((6S,8aS)-3,3-difluorohexahydro-1H-pyrrolo[2,1-c][1,4]oxazin-6-yl)methoxy)-10-fluoro-5,6-dihydro-4H-[1,4]oxazepino[5,6,7-de]quinazolin-9-yl)-4-methyl-5-(trifluoromethyl)pyridin-2-amine] |
| 0.06 nM | 0.0616 nM | 5.7 nM | 830 nM | Cc1cc(N)nc(-c2c(Cl)c3c4c(nc(OC[C@@]56CCCN5C[C@H](F)C6)nc4c2F)N([C@H](C)c2nccnc2N)CCO3)c1C(F)(F)F (atropisomer, axis not shown; (aS)) [Example 101, 3-((R)-1-((R)-9-(6-amino-4-methyl-3-(trifluoromethyl)pyridin-2-yl)-8-chloro-10-fluoro-2-(((2R,7aS)-2-fluorotetrahydro-1H-pyrrolizin-7a(5H)-yl)methoxy)-5,6-dihydro-4H-[1,4]oxazepino[5,6,7-de]quinazolin-4-yl)ethyl)pyrazin-2-amine] |
